# Results published in patent US20260224521A1, “BIOMOLECULE FOR TREATMENT OF CORNEAL PATHOLOGIES” (Board of Supervisors of Louisiana State University and …, priority 2019, published 2026).
# B1: PEDF: pigment epithelium-derived factor, a broad-acting neurotrophic and neuroprotective factor (protein, UniProt P36955 20-418, looked up)
# Pigment epithelium-derived …: QNPASPPEEGSPDPDSTGALVEEEDPFFKVPVNKLAAAVSNFGYDLYRVRSSTSPTTNVLLSPLSVATALSALSLGAEQRTESIIHRALYYDLISSPDIHGTYKELLDTVTAPQKNLKSASRIVFEKKLRIKSSFVAPLEKSYGTRPRVLTGNPRLDLQEINNWVQAQMKGKLARSTKEIPDEISILLLGVAHFKGQWVTKFDSRKTSLEDFYLDEERTVRVPMMSDPKAVLRYGLDSDLSCKIAQLPLTGSMSIIFFLPLKVTQNLTLIEESLTSEFIHDIDRELKTVQAVLTVPKLKLSYEGEVTKSLQEMKLQSLFDSPDFSKITGKPIKLTQVEHRAGFEWNEDGAGTTPSPGLQPAHLTFPLDYHLNQPFIFVLRDTDTGALLFIGKILDPRGP
# How the values were obtained:
# [1] = mouse model of tibia bone fracture (96); cited from earlier work
# AXL receptors = conditions: osteoporosis mouse model (97); cited from earlier work
# mouse cornea [2] = conditions: topical eye drops, 3× daily for 96 hours; 2005 (76); cited from earlier work
# [3] = Incorporation of DHA into PC and PE after topical DHA to corneas with damaged stromal nerves; type: in vivo; conditions: 1 h, injured mouse corneas
# Method: Proportion of PC and PE containing oleic acid (18:1) in the sn-1 and DHA in the sn-2 position. PE was more enriched in the DHA than PC. […] Corneal lipid profiles were analyzed by mass spectrometry-based lipidomic analysis.
# injured corneas = conditions: NPD1 added to injured corneas (27); cited from earlier work
# rabbit cornea = conditions: cited from earlier work
# mouse cornea [4] = conditions: subconjunctival injection every 48 hours, 14 days; 2009 (77); cited from earlier work
# corneal nerves [5] = conditions: daily i.p. injections of 1 ng/g body weight for 8 weeks; 2017 (79); cited from earlier work
# mouse cornea [6] = assay: Corneal wound healing 20 h after injury (methylene blue stained wounded area); type: in vivo; conditions: 20 h after injury and topical treatment; compared to vehicle
# Method: Studies have shown that PEDF+DHA promotes corneal wound healing in rabbit (20, 21), and in normal and diabetic mice (24, 25) after experimental surgery. We validated the ability of RvD6s (either RvD6 or RvD6si) in stimulating corneal wound healing. The right mouse eyes were injured, and the animals were divided into four groups: vehicle, PEDF+DHA, RvD6, and RvD6si (FIG. 4).
# (§1) Mice were anesthetized with a mix of ketamine (200 mg/kg) and xylazine (10 mg/kg) injected intraperitoneally, and one drop of proparacaine hydrochloride solution (0.5%) was applied to the right eye subjected to injury. As previously described (19, 29), the center of the cornea was demarcated with a 2 mm trephine, and the epithelium and the anterior stroma were gently removed under a surgical microscope using a corneal rust ring remover (Algerbrush II; Alger Equipment Co., Lago Vista, TX, USA). One drop of 0.3% of tobramycin ophthalmic solution (Henry Schein, Melville, NY, USA) was applied to the eye to prevent postoperative infection. The same investigator (J.H.) performed all surgeries. Afterward, 10 μl of PEDF (50 ng/ml) plus DHA (50 nM) or DHA-derived lipid mediators were applied topically, as explained in each experimental design.
# Mice were euthanized 20 h after injury and treatment, and corneas were stained with 0.5% methylene blue for 20 sec and then washed with PBS for 2 min. Photographs were taken with a dissecting microscope (SMZ 1500; Nikon, Tokyo, Japan) through an attached digital camera (DXM 1200; Nikon). The images corresponding to the wounded area were quantified using Photoshop CC 2014 software (Adobe, San Jose, CA, USA).
# corneal nerves [7] = assay: Corneal nerve analysis (PGP9.5 and SP whole-mount nerve density); type: in vivo, mouse
# Text: PEDF+DHA stimulates corneal nerve regeneration in injury animal models (20-25). It was important to confirm the biological activity of RvD6si as a lipid mediator underlying the action of PEDF+DHA. To validate this, mice were injured and treated (as described in FIG. 4). Isolated corneas were stained with PGP 9.5, a pan-neuronal marker, and with SP neuropeptide antibodies. The density of non-injured corneal nerves positive to PGP 9.5 and SP, respectively, was used to normalize the values (FIG. 5). Substance P is a main neuropeptide in mammalian corneas (26-28).
# as §1
# Twelve days after injury and treatment, mice were euthanized, and the eyes enucleated and fixed with Zamboni's fixative (American Master Tech Scientific, Lodi, CA, USA) for 45 min at room temperature. The corneas were then excised and fixed for an additional 15 min, followed by 3 washes with PBS. To block nonspecific binding, corneas were incubated with 10% normal goat serum plus 0.5% Triton X-100 in PBS for 1 h at room temperature. Afterward, corneas were incubated with the primary antibodies, rabbit monoclonal anti-PGP9.5 (1:500), (ab108986; Abcam, Cambridge, MA, USA), and rat monoclonal anti-substance-P (SP; 1:100) (sc-21715; Santa Cruz Biotechnology, Dallas, TX, USA) for 24 h at room temperature with constant shaking. After being washed with PBS, the corneas were incubated with the corresponding secondary antibodies goat anti-rabbit Alexa-Fluor 488 (1:1000) and goat anti-rat Alexa-Fluor 488 (1:1000) (Thermo Fisher Scientific, Waltham, MA, USA) for 24 h at 4° C. Four radial cuts were performed on each cornea that was flatly mounted on a slide with the endothelium side up and examined with a fluorescent microscope (Deconvolution microscope DP80; Olympus, Tokyo, Japan). The images were merged together to build the entire view of the corneal nerve network. The corneal nerve density was measured using Photoshop CC 2014 (Adobe) as previously described (26, 29).
# mouse cornea [8] = assay: Corneal sensitivity measurement (Belmonte non-contact aesthesiometer); type: in vivo; conditions: day 9 after injury and treatment; vs vehicle
# Method: Corneal sensitivity was evaluated at days 3, 6, 9 and 12 after corneal injury and treatment (FIG. 4). A new methodology to measure the sensation in mouse cornea was introduced using the Belmonte non-contact aesthesiometer. […] It is important to note that this range of normal corneal sensitivity is critical to evaluate corneal sensation since the Belmonte non-contact aesthesiometer working flow rate is from 20 to 200 ml/min. The range of normal corneal sensitivity from […] in the mouse was regarded as successful recovery after injury and treatment, and it was used to normalize the measurements.
# as §1
# The non-contact corneal aesthesiometer has been described as a more reliable method than the standard Cochet-Bonnet aesthesiometer to determine the corneal sensation threshold (54). Therefore, for corneal sensation measurement, the Belmonte non-contact corneal aesthesiometer (55) was used with some modification. Briefly, one researcher held the mouse and kept the air output needle at a distance of 3 mm from the cornea. Another researcher controlled the air flow rate. The measurements started at an air flow rate of 80 ml per minute and then increased gradually by ten units until the mouse started blinking. When the mouse blinked, the air flow rate was recorded as the final corneal sensitivity index.
# [9] = system: trigeminal ganglion (TG) gene expression; assay: Trigeminal ganglion RNA sequencing after corneal injury and treatment; type: in vivo, mouse; conditions: RNA-seq, 12 days after corneal injury and topical treatment; vs vehicle
# Method: Because corneal sensory nerves originate in TG neurons, we wanted to validate whether corneal injury could be sensed in the TG and t, in turn, would elicit a gene expression response. Thus, TG were harvested 12 days after injury and treatment with RvD6si or RvD6 or vehicle treatment used as control (FIG. 4) and then RNA-seq analysis was performed. […] The box plots depict two activated genes by RvD6si in this class: C9orf72 and Gpm6a (FIG. 6). We also detected specific genes related to neuropeptides and ion channel receptors in the cornea that are stimulated by the addition of PEDF+DHA (19, 21, 24) (FIG. 6D). The RNA-seq established that RvD6 or RvD6si reduced gene expression of two major neuropeptides, tachykinin precursor 1 (Tac1) that encodes Substance P (SP) and calcitonin-related polypeptide beta (Calcb). It is important to note that these neuropeptides, especially Calcb, are major pain-induced mediators in migraine and other primary headaches (30).
# TG corresponding to the injury eye side (n=5) were harvested and kept in RNAlater solution (Thermo Fisher Scientific) until homogenized on ice using a Dounce homogenizer. Total mRNA was extracted using an RNeasy mini kit (Qiagen, Germantown, MD, USA) as described by the manufacturer. Purity and concentration of RNA were determined with a NanoDrop ND-1000 spectrophotometer (Thermo Fisher Scientific), and the samples were stored at −80° C. until used. RNA sequencing was performed using the adapted Smart-seq2 protocol (56). Briefly, one ng of total RNA was reverse transcribed with the Oligo-dT30VN and template-switching oligo (TSO) primers. The total cDNAs were amplified using ISPCR primer, and the library was made using the Nextera XT DNA library preparation kit (Illumina, San Diego, CA, USA). The libraries were pooled using the same molarity and sequenced using the NextSeq 500/550 High Output Kit v2 (75 cycles, Illumina). After demultiplexing, RNA-seq data were aligned to the GENCODE GRCm38 mouse primary genome assembly (Release M22, gencodegenes.org/mouse/) using the RSubread package v1.34.6 for R v3.6.1 (57). The outputted BAM files for sequencing data alignment were counted using featureCounts function (Subread v1.6.5 in Ubuntu LTS 16.4 operating system) (58). Next, the raw count data were subjected to differential gene expression analysis using DESeq2 package for R (59). The adjusted p-values were regarded as the false discover rate (FDR).
# [10] = topical NGF (95); cited from earlier work
# [11] = system: retinal pigment epithelial (RPE) cells; conditions: RPE cells (16); cited from earlier work
molecule,measurement,setting,value
"CC/C=C\C[C@H](O)/C=C\C=C\C/C=C/C=C/C=C/C(O)[C@@H](O)CCC(=O)O (stereo in doubt) [RvD4, Resolvin D4]",pain,[1],no effect
CC/C=C\C[C@@H](O)/C=C/C=C/C/C=C\C/C=C\C/C=C\CCC(=O)O [17R-hydroxy DHA],pain behavior,AXL receptors,decrease pain behavior
CC/C=C\C[C@H](O)/C=C/C=C\C/C=C\C/C=C\C/C=C\CCC(=O)O [17S-HDHA],PMNs in the cornea,mouse cornea [2],Increased
same,formation of the proinflammatory chemokine KC,mouse cornea [2],Decreased
same,rate of re-epithelialization,mouse cornea [2],Increased the rate of re-epithelialization
"CC/C=C\C/C=C\C/C=C\C/C=C\C/C=C\C/C=C\CCC(=O)O [DHA, docosahexaenoic acid]",incorporation of the fatty acid in PC and PE molecular species containing 18:1-DHA,[3],rapid incorporation
"CC/C=C\C[C@H](O)\C=C/C=C/C=C/[C@H](O)C/C=C\C/C=C\CCC(=O)O [NPD1, neuroprotectin D1]",PMNs in the cornea,mouse cornea [2],Increased
same,formation of the proinflammatory chemokine KC,mouse cornea [2],Decreased
same,rate of re-epithelialization,mouse cornea [2],Increased the rate of re-epithelialization
same,"gene expression and protein levels of NGF, BDNF and Sema7A",injured corneas,increase
same,neutrophil infiltration,"rabbit cornea; after 2 and 4 days of treatment, 2013 (41)",Decreased neutrophil infiltration after 2 and 4
same,subepithelial corneal nerves and tear secretion,"rabbit cornea; topical eye drops 33 ng/eye, 3× daily for 6 weeks, 2013 (41)",Increased subepithelial corneal nerves and tear
"CC/C=C\C[C@H](O)/C=C/C=C\C=C\C=C\[C@@H](O)[C@@H](O)C/C=C\CCC(=O)O [RvD1, Resolvin D1]","mRNA expression levels of TNF-α, IL-1α, IL-1β, VEGF-A, VEGF-C, and VEGFR2",mouse cornea [4],macrophages and reduced mRNA expression
same,suture-induced or IL-1β-induced hemangiogenesis (HA),mouse cornea [4],Suppressed suture-induced or IL-1β-induced
same,diabetes-induced corneal nerve lost,corneal nerves [5],Reduced the diabetes-induced comeal nerve
same,pain,[1],pain attenuation
CC/C=C\C[C@H](O)/C=C/C=C\C=C\C=C\[C@@H](O)[C@@H](O)C/C=C\CCC(=O)OC [RvD1-methyl ester],diabetes-induced corneal nerve lost,corneal nerves [5],Reduced the diabetes-induced comeal nerve
CC/C=C\C[C@H](O)[C@H](O)/C=C/C=C/C=C\C=C\[C@@H](O)C/C=C\CCC(=O)OC [RvD2-methyl ester],diabetes-induced corneal nerve lost,corneal nerves [5],Reduced the diabetes-induced comeal nerve
"CC/C=C\C[C@H](O)/C=C/C=C\C[C@@H](O)/C=C/C=C/C=C\[C@@H](O)CCC(=O)O [RvD3, Resolvin D3]",pain,[1],no effect
"CC/C=C\C[C@H](O)/C=C/C=C\C/C=C\C=C\[C@@H](O)C/C=C\CCC(=O)O [RvD5, Resolvin D5]",pain,[1],pain attenuation
"CC/C=C\C[C@H](O)/C=C/C=C\C/C=C\C/C=C\C=C\[C@@H](O)CCC(=O)O [RvD6, 4S,17S-dihydroxy-5E,7Z,10Z,13Z,15E,19Z-docosahexaenoic acid, reference compound]",corneal wound healing (wound closure),mouse cornea [6],faster
same,"total corneal nerve density, differences between RvD6si, RvD6, and PEDF+DHA",corneal nerves [7]; 12 days after injury and treatment,no significant differences
same,total corneal nerve density (PGP 9.5),"corneal nerves [7]; 12 days after injury and treatment, % of the normal (uninjured) cornea",59.7±11.2%
same,density of SP-positive nerves,"corneal nerves [7]; 12 days after injury, compared to the vehicle-treated group",higher
same,corneal sensitivity,mouse cornea [8],higher
same,Calcb gene expression in TG,[9],reduced
same,Tac1 gene expression in TG,[9],reduced
NGF: nerve growth factor,side effect of topical treatment,[10],ocular pain
B1,cornea nerve regeneration,rabbit cornea; treatment with PEDF or DHA alone (19),no increase
same,potency in stimulating NPD1 synthesis relative to NGF,[11],10 times
